Like-named read-outs stand apart in the source and are kept apart here. A value given as a limit tells only on which side of the number the result lay.

Data set [1] concerns SW480 human colon adenocarcinoma cells. Description: Sulforhodamine B (SRB) growth inhibition / cytotoxicity, SW480.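 As to all read-outs here: cells exposed to graded doses from 10^-5 to 0.2 mM, with 1% DMSO as vehicle control, and cellular protein quantified by SRB staining after trichloroacetic acid fixation.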 Format: cell-based. Conditions: for SI (selectivity index): ratio IC50 CHO-K1 / IC50 SW480; for IC50: Homo sapiens, SRB, mean ± SE; for IC50 / cytotoxic activity (in words): SW480; for cytotoxic activity (in words): 24 h and 48 h after treatment.
Procedure: Cells were cultured in 25-cm^2 flasks containing Dulbecco’s Modified Eagle Medium, supplemented with 10% heat-inactivated (56 °C) horse serum, 1% penicillin/streptomycin and 1% non-essential amino acids (Gibco Invitrogen, Carlsbad, USA). For all experiments, horse serum was reduced to 3%, and the medium was supplemented with 5 mg/mL transferrin, 5 mg/mL selenium and 10 mg/mL insulin (ITS-defined medium; Gibco, Invitrogen, Carlsbad, USA) ([33]).
In data set [2] the test system is non-malignant CHO-K1 cell line. Description: Sulforhodamine B (SRB) growth inhibition / cytotoxicity, CHO-K1. Conditions: Cricetulus griseus, mean ± SE, read-out: IC50 (mM) CHO-K1 cells. It counts as cell-based. As to the method: Biological assays were performed using adenocarcinoma colon cancer (SW480) and non-malignant (CHO-K1) cell lines obtained from The European Collection of Authenticated Cell Cultures (ECACC, England). Cells were cultured in 25-cm^2 flasks containing Dulbecco’s Modified Eagle Medium, supplemented with 10% heat-inactivated (56 °C) horse serum, 1% penicillin/streptomycin and 1% non-essential amino acids (Gibco Invitrogen, Carlsbad, USA). For all experiments, horse serum was reduced to 3%, and the medium was supplemented with […] (ITS-defined medium; Gibco, Invitrogen, Carlsbad, USA) ([33]).
The growth inhibition of the ethanol extract, the Chromone and 5-fluorouracil (5-FU; the standard drug) was evaluated through sulforhodamine B (SRB) assay, a colorimetric test that is based on staining of total cellular protein of adherent cells. Cells were seeded to a ﬁnal density of 20.000 cells/well in 96-well tissue culture plates and incubated at 37 °C in a humidified atmosphere at 5% CO2. All cultures were allowed to grow for 24 h. Afterward, they were treated with 1% of DMSO (vehicle control) or increasing concentrations (10^-5–0,2 mM) of the compounds. After treatment, cells were fixed with trichloroacetic acid (50% v/v; MERCK) for one hour at 4 °C. Cell proteins were determined by staining with SRB (0.4% w/v; Sigma-Aldrich, United States), then they were washed with 1% acetic acid to remove unbound SRB and left for air-drying. Protein-bound SRB was solubilized in 10 mM Tris-base, and the absorbance was measured at 492 nm in a microplate reader (Mindray MR-96A) ([33], [34]). All experiments were performed in quintuplicate. These values were used to calculate the IC50, through dose-response curves for each compound and the selectivity index (SI), by the ratio of IC50 values in non-malignant CHO-K1 cells to IC50 of SW480 cells.
All experiments were performed at least three times. Data are reported as mean ± SE (standard error). Statistical differences between the control group (non-treated) and treated cells were evaluated by one-way ANOVA followed by the Dunnett’s test. Values with p ≤ 0.05 were considered significant. Data were analyzed with GraphPad Prism version 7.04 for Windows (Graph Pad Software, San Diego, California, USA).

In the next data set the test system is non-cancer CCD841 cells. Set-up: method as in PMID 30429977. Conditions: compared with CRC cell lines; cited from earlier work.

With `O=c1[nH]cc(F)c(=O)[nH]1` [5-Fluorouracil, reference compound], the “SI (selectivity index)” value is listed as 1.22 in data set [1] (48 h) and “higher than 1” in data set [1] (48 h, listed as 5-fluorouracil). The IC50 in data set [1] (24 h) is 0.096 ± 0.024 mM; in data set [1] (48 h), 0.037 ± 0.013 mM; in data set [2] (24 h), 0.125 ± 0.022 mM; in data set [2] (48 h), 0.046 ± 0.015 mM.
As for `C=CCSC[C@H](NC(=O)C(C)c1ccc2cc(OC)ccc2c1)C(=O)OC` (mixture of isomers) [11a, Methyl S-allyl-N-(2-(6-methoxynaphthalen-2-yl)propanoyl)-L-cysteinate], the IC50 in data set [1] (24 h), in data set [1] (48 h), in data set [2] (24 h) and in data set [2] (48 h) was above 0.2 mM throughout. The “cytotoxic activity (in words)” value in data set [1] is recorded as “displayed activity neither 24 h nor 48 h”.
For `C=CCSC[C@H](NC(=O)c1ccccc1O)C(=O)OC` [9a, Methyl S-allyl-N-(2-hydroxybenzoyl)-L-cysteinate], the melting point was 112 to 114 °C. Also, in data set [1] (24 h), the “SI (selectivity index)” value is recorded as below 0.73 and the half-maximal inhibitory concentration (IC50) was above 0.2 mM. Also, in data set [1] (48 h), the “SI (selectivity index)” value is given as below 0.80 and the IC50 is above 0.2 mM. Besides, the “cytotoxic activity (in words)” value in data set [1] is recorded as “displayed activity neither 24 h nor 48 h”. The half-inhibitory concentration (IC50) in data set [2] (24 h) came out at 0.146 ± 0.016 mM. Besides, the IC50 in data set [2] (48 h) was found to be 0.157 ± 0.005 mM.
In the case of `C=CCSC[C@H](NC(=O)C(C)c1ccc2cc(OC)ccc2c1)C(=O)OCCC` (mixture of isomers) [11c, Propyl S-allyl-N-(2-(6-methoxynaphthalen-2-yl)propanoyl)-L-cysteinate], the half-maximal inhibitory concentration (IC50) is above 0.2 mM in data set [1] (24 h), 0.237 ± 0.012 mM in data set [1] (48 h), above 0.2 mM in data set [2] (24 h) and above 0.2 mM in data set [2] (48 h). The “cytotoxic activity (in words)” value in data set [1] is “displayed activity neither 24 h nor 48 h”.
In the case of `C=CCSC[C@H](NC(=O)C(C)c1ccc(CC(C)C)cc1)C(=O)OC` (mixture of isomers) [12a, Methyl S-allyl-N-(2-(4-isobutylphenyl)propanoyl)-L-cysteinate], the melting point was 89 to 91 °C. In addition, in data set [1] (48 h), the “SI (selectivity index)” value is recorded as 0.82 and half-maximal inhibition (IC50) required 0.244 ± 0.011 mM. In addition, the IC50 in data set [1] (24 h) was above 0.2 mM. Further, the “cytotoxic activity (in words)” value in data set [1] is on record as “displayed activity neither 24 h nor 48 h”. In addition, in data set [2] (24 h), the IC50 is above 0.2 mM. In addition, in data set [2] (48 h), the IC50 is 0.201 ± 0.001 mM.
Turning to `COc1ccc2cc([C@H](C)C(=O)O)ccc2c1` [Naproxen, reference compound], the IC50 in data set [2] (24 h) and in data set [2] (48 h) was above 0.2 mM each time.
On to `C=CCSC[C@H](NC(=O)Cc1ccccc1Nc1c(Cl)cccc1Cl)C(=O)OCCC` [10c, Propyl S-allyl-N-(2-(2-((2,6-dichlorophenyl)amino)phenyl)acetyl)-L-cysteinate], for which the “SI (selectivity index)” value came to 1.09 in data set [1] (24 h) and 1.06 in data set [1] (48 h). Also, the IC50 is 0.204 ± 0.005 mM in data set [1] (24 h), 0.158 ± 0.002 mM in data set [1] (48 h), 0.223 ± 0.005 mM in data set [2] (24 h) and 0.167 ± 0.1 mM in data set [2] (48 h).
On to `C=CCSC[C@H](NC(=O)C(C)c1ccc(CC(C)C)cc1)C(=O)OCC` (mixture of isomers) [12b, Ethyl S-allyl-N-(2-(4-isobutylphenyl)propanoyl)-L-cysteinate], for which the melting point is 65 to 67 °C. Further, in data set [1] (48 h), the “SI (selectivity index)” value came out at 1.31 and the IC50 turned out to be 0.183 ± 0.005 mM. The concentration for half-maximal inhibition (IC50) in data set [1] (24 h) was above 0.2 mM. Also, the IC50 in data set [2] (24 h) is above 0.2 mM. In addition, the half-maximal inhibitory concentration (IC50) in data set [2] (48 h) is 0.241 ± 0.018 mM.
With `C=CCSC[C@H](NC(=O)C(C)c1ccc2cc(OC)ccc2c1)C(=O)OCC` (mixture of isomers) [11b, Ethyl S-allyl-N-(2-(6-methoxynaphthalen-2-yl)propanoyl)-L-cysteinate], in data set [1] (48 h), the “SI (selectivity index)” value is above 1.28. Also, the IC50 in data set [1] (24 h) was above 0.2 mM; in data set [1] (48 h) it was 0.156 ± 0.008 mM; in data set [2] (24 h), above 0.2 mM; in data set [2] (48 h), above 0.2 mM.
Consider `CC(=O)Oc1ccccc1C(=O)O` [Aspirin, reference compound], for which the IC50 in data set [1] (24 h), in data set [1] (48 h), in data set [2] (24 h) and in data set [2] (48 h) was above 0.2 mM each time.
For `O=C(O)Cc1ccccc1Nc1c(Cl)cccc1Cl` [Diclofenac, reference compound], in data set [1] (48 h), the “SI (selectivity index)” value amounted to 0.98. Moreover, the IC50 in data set [1] (24 h) was 0.267 ± 0.01 mM; in data set [1] (48 h), 0.206 ± 0.011 mM; in data set [2] (24 h), above 0.2 mM; in data set [2] (48 h), 0.202 ± 0.001 mM.
Turning to `C=CCSC[C@H](NC(=O)C(C)c1ccc(CC(C)C)cc1)C(=O)OCCC` (mixture of isomers) [12c, Propyl S-allyl-N-(2-(4-isobutylphenyl)propanoyl)-L-cysteinate], the melting point was 58 to 60 °C. For the same compound, in data set [1] (24 h), the “SI (selectivity index)” value was above 1.1 and the IC50 came to 0.225 ± 0.01 mM. The compound further came in with an IC50 in data set [1] (48 h) of 0.209 ± 0.005 mM. Moreover, in data set [1], the “cytotoxic activity (in words)” value is given as “displayed activity neither 24 h nor 48 h”. The IC50 in data set [2] (24 h) is above 0.2 mM. Besides, in data set [2] (48 h), the IC50 is above 0.2 mM.
Regarding `C=CCSC[C@H](NC(=O)c1ccccc1O)C(=O)OCCC` [9c, Propyl S-allyl-N-(2-hydroxybenzoyl)-L-cysteinate], the IC50 in data set [1] (24 h), in data set [1] (48 h), in data set [2] (24 h) and in data set [2] (48 h) was above 0.2 mM throughout. In addition, in data set [1], the “cytotoxic activity (in words)” value was “displayed activity neither 24 h nor 48 h”.
In the case of `C=CCSC[C@H](NC(=O)Cc1ccccc1Nc1c(Cl)cccc1Cl)C(=O)OCC` [10b, Ethyl S-allyl-N-(2-(2-((2,6-dichlorophenyl)amino)phenyl)acetyl)-L-cysteinate], the “SI (selectivity index)” value in data set [1] (48 h) is listed as above 1.53. Also, the IC50 in data set [1] (24 h) was 0.24 ± 0.013 mM; in data set [1] (48 h), 0.131 ± 0.012 mM; in data set [2] (24 h), above 0.2 mM; in data set [2] (48 h) it was above 0.2 mM.
Turning to `C=CCSC[C@H](NC(=O)c1ccccc1O)C(=O)OCC` [9b, Ethyl S-allyl-N-(2-hydroxybenzoyl)-L-cysteinate], the “SI (selectivity index)” value in data set [1] (24 h) is listed as above 1.25. Further, the IC50 in data set [1] (24 h) was 0.16 ± 0.013 mM; in data set [1] (48 h) it was above 0.2 mM; in data set [2] (24 h), above 0.2 mM; in data set [2] (48 h), above 0.2 mM.
On to `C=CCSC[C@H](NC(=O)Cc1ccccc1Nc1c(Cl)cccc1Cl)C(=O)OC` [10a, Methyl S-allyl-N-(2-(2-((2,6-dichlorophenyl)amino)phenyl)acetyl)-L-cysteinate], for which the IC50 in data set [1] (24 h) came to 0.192 ± 0.004 mM; in data set [1] (48 h) it was 0.12 ± 0.004 mM; in data set [2] (24 h), 0.18 ± 0.012 mM; in data set [2] (48 h), 0.112 ± 0.008 mM.
On to `COc1ccc(/C=C/C(=O)c2ccc(Cl)cc2)c(OC(=O)c2ccccc2OC(C)=O)c1` [compound 4], for which the “fold less inhibitory activity against non-cancer CCD841 cells” value in the data set with non-cancer CCD841 cells is 8 fold.
As for `CC(C)Cc1ccc(C(C)C(=O)O)cc1` (stereo not drawn) [Ibuprofen, reference compound], the concentration for half-maximal inhibition (IC50) in data set [1] (24 h), in data set [1] (48 h), in data set [2] (24 h) and in data set [2] (48 h) was above 0.2 mM in each case.
